Results reported in patent publication US20110124653A1, “ARYL-SULPHONAMIDIC DIMERS AS METALLOPROTEASES INHIBITORS” (BRACCO IMAGING S.P.A., priority 2008, published 2011).

Key:
Test in all cases: MMP inhibition assay, fluorogenic substrate FS-6
Format in all cases: biochemical
Conditions in all cases: substrate FS-6 (Mca-Lys-Pro-Leu-Gly-Leu-Dpa-Ala-Arg-NH2), enzyme and inhibitor incubated 4 h at 25° C., triplicate
MMP-2 = target: T1, MMP-2 (Homo sapiens, UniProt P08253)
T1 construct: Prof; Gillian Murphy (Department of Oncology, University of Cambridge, UK)
T1 sequence (P08253 110-660): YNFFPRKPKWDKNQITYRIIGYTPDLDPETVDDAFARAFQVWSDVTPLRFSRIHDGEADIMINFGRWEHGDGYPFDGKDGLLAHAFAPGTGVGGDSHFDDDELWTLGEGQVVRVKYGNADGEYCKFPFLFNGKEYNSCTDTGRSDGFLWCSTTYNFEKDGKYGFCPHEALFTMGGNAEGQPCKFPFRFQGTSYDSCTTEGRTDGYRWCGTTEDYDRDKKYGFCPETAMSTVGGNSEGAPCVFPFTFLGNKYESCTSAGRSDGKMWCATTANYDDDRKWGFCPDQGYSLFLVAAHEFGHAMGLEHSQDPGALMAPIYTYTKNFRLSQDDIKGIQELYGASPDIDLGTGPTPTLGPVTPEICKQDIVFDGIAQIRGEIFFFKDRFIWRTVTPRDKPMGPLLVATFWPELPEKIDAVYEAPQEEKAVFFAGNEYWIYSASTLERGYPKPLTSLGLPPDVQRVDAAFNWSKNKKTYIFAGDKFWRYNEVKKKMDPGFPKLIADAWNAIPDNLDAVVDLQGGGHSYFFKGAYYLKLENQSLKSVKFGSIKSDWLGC
Method: (§1) As reported therein, the inhibitory activity of the compounds of the invention was evaluated on the known fluorogenic substrate (Mca-Lys-Pro-Leu-Gly-Leu-Dpa-Ala-Arg-NH2), shortly referred to as FS-6 (see, as a reference, U. Neumann, Analytical Biochem. 2004, 328, 166-173).
(§2) Recombinant human pro-MMP-2 was supplied by Prof. Gillian Murphy (Department of Oncology, University of Cambridge, UK), while pro-MMP-13 and pro-MMP-14 were purchased from Calbiochem. […] Pro-MMP-14 was activated with trypsin 5 μg/ml for 15 min at 37° C. followed by soybean trypsin inhibitor (SBTI) 23 μg/ml. For assay measurements, the inhibitor stock solutions (DMSO, 100 mM) were further diluted, at seven different concentrations (0.01 nM-100 μM) for each MMP in the fluorimetric assay buffer (FAB: Tris 50 mM, pH=7.5, NaCl 150 mM, CaCl2 10 mM, Brij 35 0.05% and DMSO 1%). Activated enzyme (final concentration 2.9 nM for MMP-2, 1 nM for MMP-14, 0.33 nM for MMP-13) and inhibitor solutions were incubated in the assay buffer for 4 h at 25° C. After the addition of 200 μM solution of the fluorogenic substrate Mca-Lys-Pro-Leu-Gly-Leu-Dpa-Ala-Arg-NH2 (Bachem) (see, for a reference, Neumann, U.; Kubota, H.; Frei, K.; Ganu, V.; Leppert, D. Anal. Biochem. 2004, 328, 166) for all of the enzymes in DMSO (final concentration 2 μM), the hydrolysis was monitored every 15 sec. for 20 min recording the increase in fluorescence (λex=325 nm, λem=395 nm) using a Molecular Device SpectraMax Gemini XS plate reader.
(§3) The assays were performed in triplicate, in a total volume of 200 μl per well, in 96-well microtitre plates (Corning, black, NBS). Control wells lack inhibitor. The MMP inhibition activity was expressed in relative fluorescent units (RFU). Percent of inhibition was calculated from control reactions without the inhibitor. IC50 was determined using the formula: Vi/Vo=1/(1+[I]/IC50), where Vi is the initial velocity of substrate cleavage in the presence of the inhibitor at concentration [I] and Vo is the initial velocity in the absence of the inhibitor. Results were analyzed using SoftMax Pro software and GraFit software.

MMP-13 = MMP-13 (Homo sapiens, UniProt P45452)
Method: as §1, §2, §3

MMP-14 = target: T2, MMP-14 (Homo sapiens, UniProt P50281)
T2 construct: purchased Calbiochem
Method: as §1, §2, §3

Row | SMILES | IC50 (MMP-2) | IC50 (MMP-13) | IC50 (MMP-14)
1 | O=C(CCCNC(=O)c1cccc(C(=O)NCCCC(=O)NCC[C@@H](NS(=O)(=O)c2ccc(-c3ccccc3)cc2)C(=O)NO)c1)NCC[C@@H](NS(=O)(=O)c1ccc(-c2ccccc2)cc1)C(=O)NO [1b - example 16] | 3.7 nM | 2.4 nM | 31 nM
2 | O=C(NCC[C@H](C(=O)NO)N(OCCOCCN1CCN(C(=O)c2cccc(C(=O)N3CCN(CCOCCON([C@H](CCNC(=O)OCc4ccccc4)C(=O)NO)S(=O)(=O)c4ccc(-c5ccccc5)cc4)CC3)c2)CC1)S(=O)(=O)c1ccc(-c2ccccc2)cc1)OCc1ccccc1 [2b - example 17] | 3.6 nM | 1.93 nM | –
